Test results from ChEMBL document CHEMBL4385643, “Design of a brain-penetrant CDK4/6 inhibitor for glioblastoma” (Bioorg Med Chem Lett, 2019).

Experiments:
[1] = target: Tyrosine-protein kinase Mer (Homo sapiens) (UniProt Q12866); test: Inhibition of recombinant human GST-tagged MER (578 to 872 residues) expressed in baculovirus expression system at 0.1 uM using tyrosine-2 peptide as substrate incubated for 60 mins by Z'-LYTE assay relative to control
[2] = target: Serine/threonine-protein kinase TAO2 (Homo sapiens) (UniProt Q9UL54); test: Inhibition of recombinant human GST-tagged TAO2 catalytic domain (1 to 314 residues) expressed in baculovirus expression system at 0.1 uM using serine/threonine-7 peptide as substrate incubated for 60 mins by Z'-LYTE assay relative to control
[3] = target: Cyclin-dependent kinase 5/CDK5 activator 1 (Homo sapiens) (UniProt Q00535+Q15078); test: Inhibition of recombinant full length human GST/His-tagged CDK5/p25 expressed in baculovirus expression system at 0.1 uM using serine/threonine-12 peptide as substrate incubated for 60 mins by Z'-LYTE assay relative to control
[4] = target: Phosphorylase b kinase gamma catalytic chain, skeletal muscle/heart isoform (Homo sapiens) (UniProt Q16816); test: Inhibition of recombinant full length human GST-tagged PHKG1 expressed in baculovirus expression system at 0.1 uM using serine/threonine-7 peptide as substrate incubated for 60 mins by Z'-LYTE assay relative to control
[5] = target: Serine/threonine-protein kinase PAK 6 (Homo sapiens) (UniProt Q9NQU5); test: Inhibition of recombinant full length human His-tagged PAK6 expressed in baculovirus expression system at 0.1 uM using serine/threonine-20 peptide as substrate incubated for 60 mins by Z'-LYTE assay relative to control
[6] = target: Epidermal growth factor receptor (Homo sapiens) (UniProt P00533); test: Inhibition of recombinant human GST-tagged EGFR (668 to 1210 residues) expressed in baculovirus expression system at 0.1 uM using tyrosine-4 peptide as substrate incubated for 60 mins by Z'-LYTE assay relative to control
[7] = target: Receptor-interacting serine/threonine-protein kinase 2 (Homo sapiens) (UniProt O43353); test: Inhibition of tracer 178 binding to recombinant human His-tagged RIPK2 catalytic domain (1 to 299 residues) expressed in baculovirus expression system at 0.1 uM measured after 60 mins by Lanthascreen assay relative to control
[8] = target: Calcium/calmodulin-dependent protein kinase type II subunit beta (Homo sapiens) (UniProt Q13554); test: Inhibition of recombinant full length human His-tagged CAMK2beta expressed in baculovirus expression system at 0.1 uM using serine/threonine-17 peptide as substrate incubated for 60 mins by Z'-LYTE assay relative to control
[9] = target: Serine/threonine-protein kinase Sgk2 (Homo sapiens) (UniProt Q9HBY8); test: Inhibition of recombinant human GST-tagged SGK2 catalytic domain (54 to 427 residues) expressed in baculovirus expression system at 0.1 uM using serine/threonine-6 peptide as substrate incubated for 60 mins by Z'-LYTE assay relative to control
[10] = target: Calcium/calmodulin-dependent protein kinase kinase 1 (Homo sapiens) (UniProt Q8N5S9); test: Inhibition of tracer 236 binding to recombinant human GST-tagged CAMKK1 expressed in Escherichia coli expression system at 0.1 uM measured after 60 mins by Lanthascreen assay relative to control
[11] = target: Aurora kinase B (Homo sapiens) (UniProt Q96GD4); test: Inhibition of recombinant full length human His-tagged Aurora B expressed in baculovirus expression system at 0.1 uM using serine/threonine-1 peptide as substrate incubated for 60 mins by Z'-LYTE assay relative to control
[12] = target: Calcium/calmodulin-dependent protein kinase type 1D (Homo sapiens) (UniProt Q8IU85); test: Inhibition of recombinant full length human His-tagged CAMK1delta expressed in baculovirus expression system at 0.1 uM using serine/threonine-25 peptide as substrate incubated for 60 mins by Z'-LYTE assay relative to control
[13] = target: BDNF/NT-3 growth factors receptor (Homo sapiens) (UniProt Q16620); test: Inhibition of recombinant human His-tagged TRKB catalytic domain (526 to 838 residues) expressed in baculovirus expression system at 0.1 uM using tyrosine-1 peptide as substrate incubated for 60 mins by Z'-LYTE assay relative to control
[14] = target: Tyrosine-protein kinase JAK2 (Homo sapiens) (UniProt O60674); test: Inhibition of recombinant human GST-tagged JAK2 catalytic domain (809 to 1153+9 residues) expressed in baculovirus expression system at 0.1 uM using tyrosine-6 peptide as substrate incubated for 60 mins by Z'-LYTE assay relative to control
[15] = target: Serine/threonine-protein kinase Nek4 (Homo sapiens) (UniProt P51957); test: Inhibition of recombinant full length human GST-tagged NEK4 expressed in baculovirus expression system at 0.1 uM using serine/threonine-17 peptide as substrate incubated for 60 mins by Z'-LYTE assay relative to control
[16] = target: Cyclin-dependent kinase 4/cyclin D1 (Homo sapiens) (UniProt P11802+P24385); test: Inhibition of recombinant full length human GST-tagged CDK4/Cyclin D1 expressed in baculovirus expression system at 0.1 uM using Rb peptide as substrate incubated for 60 mins by Adapta assay relative to control
[17] = target: Activin receptor type-1 (Homo sapiens) (UniProt Q04771); test: Inhibition of tracer 236 binding to recombinant human GST-tagged ALK2 catalytic domain (145 to 509 residues) expressed in baculovirus at 0.1 uM measured after 60 mins by Lanthascreen assay relative to control
[18] = target: cAMP-dependent protein kinase catalytic subunit PRKX (Homo sapiens) (UniProt P51817); test: Inhibition of recombinant full length human GST-tagged PRKX expressed in baculovirus expression system at 0.1 uM using serine/threonine-1 peptide as substrate incubated for 60 mins by Z'-LYTE assay relative to control
[19] = target: Tyrosine-protein kinase JAK3 (Homo sapiens) (UniProt P52333); test: Inhibition of recombinant human GST-tagged JAK3 catalytic domain (781 to 1124 residues) expressed in baculovirus expression system at 0.1 uM using tyrosine-6 peptide as substrate incubated for 60 mins by Z'-LYTE assay relative to control
[20] = target: Macrophage colony-stimulating factor 1 receptor (Homo sapiens) (UniProt P07333); test: Inhibition of recombinant human His-tagged CSF1R catalytic domain (538 to 910 residues) expressed in Baculovirus expression system at 0.1 uM using tyrosine-1 peptide as substrate incubated for 60 mins by Z'-LYTE assay relative to control
[21] = target: Rho-associated protein kinase 1 (Homo sapiens) (UniProt Q13464); test: Inhibition of recombinant human GST-tagged ROCK1 catalytic domain (1 to 535 amino acids) expressed in baculovirus expression system at 0.1 uM using serine/threonine-7 peptide as substrate incubated for 60 mins by Z'-LYTE assay relative to control
[22] = target: Sphingosine kinase 1 (Homo sapiens) (UniProt Q9NYA1); test: Inhibition of recombinant full length human GST-tagged SPHK1 expressed in baculovirus expression system at 0.1 uM using Sphingosine Lipid as substrate incubated for 60 mins by Adapta assay relative to control
Sequence of Sphingosine kinase 1 (Homo sapiens) (Q9NYA1 whole entry): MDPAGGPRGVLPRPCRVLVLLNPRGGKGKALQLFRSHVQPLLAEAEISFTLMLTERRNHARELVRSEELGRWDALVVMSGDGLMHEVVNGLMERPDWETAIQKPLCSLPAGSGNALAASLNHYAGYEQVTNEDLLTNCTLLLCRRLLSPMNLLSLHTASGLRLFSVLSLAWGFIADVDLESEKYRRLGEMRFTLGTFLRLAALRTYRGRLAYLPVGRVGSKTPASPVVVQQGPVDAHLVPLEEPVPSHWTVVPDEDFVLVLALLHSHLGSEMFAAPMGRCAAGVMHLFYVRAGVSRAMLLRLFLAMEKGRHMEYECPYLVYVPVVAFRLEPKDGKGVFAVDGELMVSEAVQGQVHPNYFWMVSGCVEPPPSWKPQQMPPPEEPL

Sequence of Serine/threonine-protein kinase Nek4 (Homo sapiens) (P51957 whole entry, looked up): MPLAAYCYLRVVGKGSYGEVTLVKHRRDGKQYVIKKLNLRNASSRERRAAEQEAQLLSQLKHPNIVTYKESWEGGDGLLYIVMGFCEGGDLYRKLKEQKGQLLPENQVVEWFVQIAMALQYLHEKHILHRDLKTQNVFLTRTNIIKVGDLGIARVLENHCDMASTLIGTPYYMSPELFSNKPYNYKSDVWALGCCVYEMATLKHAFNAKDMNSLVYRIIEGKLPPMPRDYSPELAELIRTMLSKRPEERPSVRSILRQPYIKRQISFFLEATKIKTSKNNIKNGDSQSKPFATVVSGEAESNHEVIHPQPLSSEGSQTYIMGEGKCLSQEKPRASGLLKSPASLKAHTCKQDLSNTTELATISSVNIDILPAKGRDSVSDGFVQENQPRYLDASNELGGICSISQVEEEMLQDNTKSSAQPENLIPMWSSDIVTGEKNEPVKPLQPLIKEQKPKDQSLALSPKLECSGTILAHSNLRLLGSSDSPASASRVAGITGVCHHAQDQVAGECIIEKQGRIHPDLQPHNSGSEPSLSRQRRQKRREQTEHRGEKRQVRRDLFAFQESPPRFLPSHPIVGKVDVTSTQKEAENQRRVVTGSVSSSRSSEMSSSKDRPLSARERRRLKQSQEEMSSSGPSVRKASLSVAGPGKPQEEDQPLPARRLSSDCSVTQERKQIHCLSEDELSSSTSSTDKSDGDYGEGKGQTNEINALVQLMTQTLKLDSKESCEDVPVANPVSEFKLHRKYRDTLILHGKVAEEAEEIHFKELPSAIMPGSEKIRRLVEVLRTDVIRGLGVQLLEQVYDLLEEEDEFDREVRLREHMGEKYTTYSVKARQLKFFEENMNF
Sequence of Tyrosine-protein kinase Mer (Homo sapiens) (Q12866 whole entry, the tested form may be a part): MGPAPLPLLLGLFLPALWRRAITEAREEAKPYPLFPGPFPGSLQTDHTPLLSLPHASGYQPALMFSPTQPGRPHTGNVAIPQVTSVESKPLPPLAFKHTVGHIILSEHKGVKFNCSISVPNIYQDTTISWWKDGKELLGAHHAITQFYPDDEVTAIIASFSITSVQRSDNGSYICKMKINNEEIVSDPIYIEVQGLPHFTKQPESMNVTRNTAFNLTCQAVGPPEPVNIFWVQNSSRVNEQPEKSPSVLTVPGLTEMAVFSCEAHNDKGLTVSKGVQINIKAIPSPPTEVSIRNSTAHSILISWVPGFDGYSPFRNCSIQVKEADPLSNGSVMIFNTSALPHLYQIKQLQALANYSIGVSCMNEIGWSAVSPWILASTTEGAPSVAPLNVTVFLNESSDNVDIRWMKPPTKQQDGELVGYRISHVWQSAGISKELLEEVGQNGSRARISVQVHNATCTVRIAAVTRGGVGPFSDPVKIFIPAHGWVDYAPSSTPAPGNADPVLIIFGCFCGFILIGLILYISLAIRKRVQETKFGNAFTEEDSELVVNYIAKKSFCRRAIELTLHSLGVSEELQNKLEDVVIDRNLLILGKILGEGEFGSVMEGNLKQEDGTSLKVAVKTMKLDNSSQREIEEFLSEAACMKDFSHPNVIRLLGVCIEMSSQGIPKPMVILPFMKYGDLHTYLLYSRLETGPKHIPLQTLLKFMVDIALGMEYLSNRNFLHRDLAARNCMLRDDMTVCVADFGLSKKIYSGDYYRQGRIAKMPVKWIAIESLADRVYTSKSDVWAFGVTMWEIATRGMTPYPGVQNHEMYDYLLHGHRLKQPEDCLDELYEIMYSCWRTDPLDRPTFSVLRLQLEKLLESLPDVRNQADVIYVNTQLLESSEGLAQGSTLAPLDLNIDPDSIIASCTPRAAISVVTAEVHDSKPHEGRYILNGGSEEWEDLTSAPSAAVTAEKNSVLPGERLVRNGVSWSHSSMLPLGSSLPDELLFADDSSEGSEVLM
Sequence of cAMP-dependent protein kinase catalytic subunit PRKX (Homo sapiens) (P51817 whole entry, the tested form may be a part): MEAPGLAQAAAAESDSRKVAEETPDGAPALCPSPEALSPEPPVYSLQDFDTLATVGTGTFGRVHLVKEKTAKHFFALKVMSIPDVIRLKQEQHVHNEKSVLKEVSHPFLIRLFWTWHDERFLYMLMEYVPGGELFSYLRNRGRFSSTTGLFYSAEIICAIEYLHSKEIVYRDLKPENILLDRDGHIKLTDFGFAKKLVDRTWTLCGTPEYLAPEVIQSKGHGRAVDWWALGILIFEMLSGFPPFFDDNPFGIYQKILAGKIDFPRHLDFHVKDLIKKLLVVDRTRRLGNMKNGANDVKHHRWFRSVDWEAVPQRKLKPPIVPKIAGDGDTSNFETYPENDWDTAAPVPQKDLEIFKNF
Sequence of Tyrosine-protein kinase JAK2 (Homo sapiens) (O60674 whole entry, the tested form may be a part): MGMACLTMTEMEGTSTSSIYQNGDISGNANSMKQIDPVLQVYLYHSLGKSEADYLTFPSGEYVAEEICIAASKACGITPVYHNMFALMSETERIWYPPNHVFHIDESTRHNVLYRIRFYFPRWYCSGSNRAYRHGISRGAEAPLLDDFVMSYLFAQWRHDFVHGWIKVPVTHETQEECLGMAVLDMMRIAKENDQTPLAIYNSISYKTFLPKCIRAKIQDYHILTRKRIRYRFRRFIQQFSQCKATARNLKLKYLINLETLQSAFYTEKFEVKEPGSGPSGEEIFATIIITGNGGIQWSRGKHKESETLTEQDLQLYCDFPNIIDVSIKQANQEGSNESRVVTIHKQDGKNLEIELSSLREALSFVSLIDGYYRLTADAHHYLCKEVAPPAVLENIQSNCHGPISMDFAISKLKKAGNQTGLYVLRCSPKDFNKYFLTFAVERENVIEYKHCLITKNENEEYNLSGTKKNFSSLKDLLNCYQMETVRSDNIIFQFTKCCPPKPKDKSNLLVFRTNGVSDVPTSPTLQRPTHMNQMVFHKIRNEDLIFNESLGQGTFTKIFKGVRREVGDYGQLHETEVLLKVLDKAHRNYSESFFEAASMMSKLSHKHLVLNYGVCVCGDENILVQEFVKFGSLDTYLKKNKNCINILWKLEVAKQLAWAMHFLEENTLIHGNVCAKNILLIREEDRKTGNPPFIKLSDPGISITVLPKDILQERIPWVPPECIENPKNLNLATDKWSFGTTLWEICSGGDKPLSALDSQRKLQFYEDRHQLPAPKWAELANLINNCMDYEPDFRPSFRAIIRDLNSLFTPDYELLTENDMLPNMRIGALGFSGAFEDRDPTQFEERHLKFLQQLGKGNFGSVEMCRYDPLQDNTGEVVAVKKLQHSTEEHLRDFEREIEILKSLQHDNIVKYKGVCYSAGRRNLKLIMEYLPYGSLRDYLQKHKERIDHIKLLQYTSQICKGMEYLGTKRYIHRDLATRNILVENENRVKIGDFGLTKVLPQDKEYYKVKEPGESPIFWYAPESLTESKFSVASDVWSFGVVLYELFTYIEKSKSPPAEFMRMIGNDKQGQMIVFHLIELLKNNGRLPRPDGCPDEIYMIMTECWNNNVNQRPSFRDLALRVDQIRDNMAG
Sequence of Activin receptor type-1 (Homo sapiens) (Q04771 whole entry, the tested form may be a part): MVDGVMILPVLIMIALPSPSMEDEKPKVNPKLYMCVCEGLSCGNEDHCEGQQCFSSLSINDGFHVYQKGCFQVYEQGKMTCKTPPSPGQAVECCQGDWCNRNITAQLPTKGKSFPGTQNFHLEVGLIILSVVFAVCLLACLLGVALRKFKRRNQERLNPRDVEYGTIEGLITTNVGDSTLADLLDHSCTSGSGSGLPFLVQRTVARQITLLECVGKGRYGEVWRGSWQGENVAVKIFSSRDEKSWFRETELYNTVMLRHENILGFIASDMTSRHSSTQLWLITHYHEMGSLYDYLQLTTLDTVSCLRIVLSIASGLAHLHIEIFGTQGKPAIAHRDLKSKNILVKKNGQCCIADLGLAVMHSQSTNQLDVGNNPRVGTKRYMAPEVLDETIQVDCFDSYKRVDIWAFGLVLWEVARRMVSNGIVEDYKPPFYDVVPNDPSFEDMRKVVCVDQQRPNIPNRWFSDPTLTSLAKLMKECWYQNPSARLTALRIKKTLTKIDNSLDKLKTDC
Sequence of Aurora kinase B (Homo sapiens) (Q96GD4 whole entry): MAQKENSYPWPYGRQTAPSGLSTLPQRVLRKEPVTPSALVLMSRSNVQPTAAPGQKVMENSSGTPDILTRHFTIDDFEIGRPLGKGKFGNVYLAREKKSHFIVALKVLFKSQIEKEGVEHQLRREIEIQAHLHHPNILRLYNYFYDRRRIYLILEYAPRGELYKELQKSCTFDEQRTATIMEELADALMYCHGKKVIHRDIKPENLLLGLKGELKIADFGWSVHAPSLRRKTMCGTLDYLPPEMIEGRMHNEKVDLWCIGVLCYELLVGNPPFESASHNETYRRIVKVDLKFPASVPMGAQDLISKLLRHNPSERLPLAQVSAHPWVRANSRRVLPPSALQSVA
Sequence of Phosphorylase b kinase gamma catalytic chain, skeletal muscle/heart isoform (Homo sapiens) (Q16816 whole entry, looked up, canonical isoform): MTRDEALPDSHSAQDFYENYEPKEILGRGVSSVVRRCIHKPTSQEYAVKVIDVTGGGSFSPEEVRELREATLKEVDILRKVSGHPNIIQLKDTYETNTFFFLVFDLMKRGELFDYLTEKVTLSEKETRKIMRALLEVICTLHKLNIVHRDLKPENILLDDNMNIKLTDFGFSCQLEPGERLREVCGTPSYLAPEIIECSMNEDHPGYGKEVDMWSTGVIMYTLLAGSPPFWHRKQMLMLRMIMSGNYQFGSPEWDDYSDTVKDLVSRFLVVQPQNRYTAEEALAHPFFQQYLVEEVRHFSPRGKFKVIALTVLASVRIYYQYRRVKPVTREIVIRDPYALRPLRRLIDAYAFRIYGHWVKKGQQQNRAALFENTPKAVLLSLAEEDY

Row | SMILES | inhibition [1] | inhibition [2] | inhibition [3] | inhibition [4] | inhibition [5] | inhibition [6] | inhibition [7] | inhibition [8] | inhibition [9] | inhibition [10] | inhibition [11] | inhibition [12] | inhibition [13] | inhibition [14] | inhibition [15] | inhibition [16] | inhibition [17] | inhibition [18] | inhibition [19] | inhibition [20] | other results
1 | CCN1CC2(C1)CN(c1ccc(Nc3ncc(F)c(-c4cnn5c4[C@H](C)CCCC5)n3)nc1)C2 | 4% | 12.5% | 72% | 64% | 3% | 0% | 2% | 20.5% | 27.5% | 12% | 7.5% | 13.5% | 6.5% | 18.5% | 3.5% | 94% | 28% | 5.5% | 61.5% | 88% | inhibition [21]: 2%; inhibition [22]: 1.5%
2 | CCN1CCN(Cc2ccc(Nc3ncc(F)c(-c4cc(F)c5nc(C)n(C(C)C)c5c4)n3)nc2)CC1 [ABEMACICLIB] | 20.5% | 56% | 60.8% | 62% | 1% | 4% | 1.1% | 88% | 36.5% | 12.6% | 14.5% | 14% | 14% | 6% | 42.5% | 87% | 30.5% | 5% | 30% | 41.4% | inhibition [21]: 18.5%; inhibition [22]: 14.7%
